# Assay results taken from patent publication US20220031849A1, “NANOPARTICLE ENCAPSULATION TO TARGET G PROTEIN-COUPLED RECEPTORS IN ENDOSOMES” (TAKEDA PHARMACEUTICAL COMPANY LIMITED, priority 2018, published 2022).
# Ends that are not written are not given here.
# Tests used:
# HEK-293 cells = assay: Uptake and disassembly of Coumarin 153 loaded nanoparticles; assay type: cell-based; conditions: 30 min pre-incubation with inhibitor
# Text: The uptake and disassembly of DIPMA nanoparticles loaded with Coumarin153 (DIPMA-CO), which emits in an aqueous environment but not in the hydrophobic core, were examined by high content imaging (confocal microscopy).
# Uptake and disassembly of nanoparticles in HEK-293 cells. Coumarin 153 is a solvatochromic dye that fluoresces only in polar solvents, allowing detection of the release of Coumarin loaded in the core of nanoparticles observed as the appearance of Coumarin fluorescence in intact cells. nanoparticles were self-assembled using 0.5 mg of Coumarin 153 per mg of DIPMA polymer (DIPMA-CO). HEK-293 cells were pre-incubated for 30 min with vehicle (Hank's Balanced Salt Solution, HBSS), dynamin inhibitor (Dyngo4a, Dy4, 30 μM), clathrin inhibitor (Pitstop, PS2, 30 μM), vacuolar H^+ATPase inhibitor (Bafilomycin A1, BFA, 1 μM) or NH4Cl (20 mM) to alkalinize endosomes. Images were obtained with a Leica SP8 confocal microscope using HCX PL APO 63× (NA […]) oil objective. Images were taken every 10 see for 30 min, where the first 5 readings correspond to baseline images prior the addition of DIPMA-CO nanoparticles (20 μg/mL). All images were analyzed using Fiji.
# [1] = test system: CFA-evoked mechanical hyperalgesia in mice; assay: Complete Freund's adjuvant-evoked mechanical hyperalgesia, von Frey filaments; assay type: in vivo; conditions: for Inhibition of CFA hyperalgesia at 1.5 h: 5 μl i.t., 48 h after CFA
# [2] = test system: capsaicin-evoked mechanical allodynia in mice; assay: Capsaicin-evoked mechanical allodynia, von Frey filaments; assay type: in vivo; conditions: for Time at which the effect is lost / not detected: i.t.
# Protocol: However, the same behaviour on the decay of the effect was observed.
# AP, nanoparticles or vehicle (5 μl) was administered by intrathecal injection to mice 30 min before intraplantar injection to the hind paw of capsaicin, which activates TRPV1 to cause acute allodynia and neurogenic inflammation. Withdrawal responses to stimulation of the plantar surface of the injected hindpaw with calibrated von Frey filaments (VFF) were measured before and after capsaicin. In mice receiving vehicle or DIPMA-empty nanoparticles, capsaicin decreased the VFF threshold from 0.5-4 h, consistent with mechanical allodynia, which returned to baseline after 24 h (FIG. 18B).
# Drug administration. Mice. […] Rats. […] Treatments were administered 10 days after sural nerve transection.
# Acute pain. Capsaicin (CAP, 5 μg) or vehicle (0.9% NaCl) was administered by subcutaneous intraplantar (i.pl.) injection (10 μL) into the left hindpaw of sedated mice (2% isoflurane) 30 min after i.t. injection of drugs.
# Mechanical allodynia and hyperalgesia. Mechanical nociception was assessed by measuring withdrawal thresholds to stimulation of the plantar surfaces of the ipsilateral and contralateral hindpaws with calibrated von Frey filaments (VFF). Prior to experiments, mice were acclimatized to the experimental apparatus and environment for 2 h on 2 successive days. VFF withdrawal thresholds were measured in triplicate to establish a baseline for each mouse. For the CAP model, VFF withdrawal thresholds were measured at 30 min intervals for the first 2 h after i.t. drug administration, then at 60 min intervals for the next 2 h, and finally after 24 h. For the CFA model, VFF withdrawal thresholds were measured every 30 min for the first 3 h after i.t. drug administration, then at 60 min intervals for the next 5 h, and finally after 24 h. Results were normalized to the baseline withdrawal thresholds of each mouse.
# [3] = test system: C-fiber reflex and wind-up in SNS rats; assay: C-fiber-evoked nociceptive reflex and wind-up in SNS rats; assay type: in vivo; conditions: 10 μl, 1 μM intrathecal
# [4] = test system: SNS-evoked mechanical hyperalgesia in rats; assay: Sural nerve spared (SNS) mechanical hyperalgesia, Randall-Selitto; assay type: in vivo
# [5] = test system: chronic pain model in rats; assay: Chronic pain model by ligation of the sciatic nerve, Randall-Selitto (Example 10); assay type: in vivo; conditions: 300 nM aprepitant, i.t. 10 μL
# Text: The chronic pain model was induced by ligation of the sciatic nerve, allowing sensitisation to pain (allodynia, hyperalgesia) to develop for 10 days. Sensitisation was confirmed measuring baseline (pre-surgery) and post-surgery paw withdrawal using a Randall-Selitto electronic algesimeter (Eva Santos-Nogueira, et al. J Neurotrauma. 2012, 29(5): 898-904). […] As is evident, aprepitant-loaded nanoparticles provide greater analgesia and longer lasting effects.
# [6] = test system: NK1R-positive lamina I neurons; assay: Cell-attached patch clamp of SP-induced excitation in rat spinal cord slices; assay type: cell-based; conditions: 100 nM AP preincubation, washed; SP 1 μM, 2 min
# Protocol: The firing time was determined as the duration of the response to last action potential.
# [7] = test system: CFA-induced mechanical hyperalgesia; conditions: Proc. Natl. Acad. Sci. USA. 114(46):12309-12314; cited from earlier work
compound,measurement,setting,value
CO/C1=C\C(C)=C\[C@@H](C)[C@@H](O)[C@@H](C)C/C(C)=C/C=C/[C@H](OC)[C@@H]([C@@H](C)[C@@H](O)[C@H](C)[C@@]2(O)C[C@@H](O)[C@H](C)[C@@H](C(C)C)O2)OC1=O [Bafilomycin A1],Effect of inhibitor on cellular fluorescence of DIPMA-CO nanoparticles,HEK-293 cells,suppressed fluorescence
same,Effect of inhibitor on cellular fluorescence of DIPMA-CO nanoparticles,HEK-293 cells; listed as Bafilomycin A,inhibited the accumulation of Coumarin 153 cellular fluorescence
O=C(N/N=C/c1cc(O)c(O)cc1O)c1cc2ccccc2cc1O [Dyngo4a],Effect of inhibitor on cellular fluorescence of DIPMA-CO nanoparticles,HEK-293 cells,inhibited the accumulation of Coumarin 153 cellular fluorescence
Cl.N [NH4Cl],Effect of inhibitor on cellular fluorescence of DIPMA-CO nanoparticles,HEK-293 cells,suppressed fluorescence
O=C1NC(=NS(=O)(=O)c2cccc3ccccc23)S/C1=C\c1ccc(Br)cc1 [PitStop2],Effect of inhibitor on cellular fluorescence of DIPMA-CO nanoparticles,HEK-293 cells,inhibited the accumulation of Coumarin 153 cellular fluorescence
"C[C@@H](O[C@H]1OCCN(Cc2nc(=O)[nH][nH]2)[C@H]1c1ccc(F)cc1)c1cc(C(F)(F)F)cc(C(F)(F)F)c1 [aprepitant, 5-([(2R,3S)-2-((R)-1-[3,5-Bis(trifluoromethyl)phenyl]ethoxy)-3-(4-fluorophenyl)morpholino]methyl)-1H-1,2,4-triazol-3(2H)-one]",Inhibition of CFA hyperalgesia at 1.5 h,[1]; 100 nM AP,30±6%
same,Inhibition of CFA hyperalgesia at 1.5 h,[1]; 300 nM AP,47±3%
same,Duration of reversal of hyperalgesia,"[1]; free AP 100 or 300 nM, DIPMA-AP 100 nM AP, i.t.",2 to 3 h
same,Inhibition of capsaicin-evoked allodynia at 1 h,"[2]; 5 μl i.t., 100 nM AP, 30 min before capsaicin",16±4%
same,Time at which the effect is lost / not detected,[2]; 100 nM AP,3 h
same,Time at which the effect is lost / not detected,"[2]; 100 nM AP, listed as AP",1.5 h
same,Analgesia on the first hour,[2]; single i.t. dose 30 minutes prior to capsaicin (Example 9),30%
same,Effect on C-reflex,[3],"decreased the C-reflex, but only at 30 min"
same,Effect on wind-up,[3],did not affect wind-up
same,Effect on withdrawal threshold,"[4]; 10 μl i.t., 100 nM, 10 days after SNS",did not modify withdrawal threshold
same,"Maximum inhibition of hyperalgesia, after 1 h","[4]; 10 μl i.t., 300 nM",40±2%
same,Time of return to baseline,"[4]; i.t., 300 nM",2.5 h
same,Inhibition of hyperalgesia after 1 h,"[4]; i.t., 1 μM",75±4%
same,Time of return to baseline,"[4]; i.t., 1 μM",3 h
same,Duration of effect,[5],2 h
same,"Improvement in pressure, Randall-Selitto",[5],20 g
same,Pain recovery,[5],~25%
same,Effect on SP-induced firing of spinal neurons,[6],"did not affect the onset, rate or duration of SP-induced firing"
CN1CC[C@]23c4c5ccc(O)c4O[C@H]2[C@@H](O)C=C[C@H]3[C@H]1C5 [morphine],Effect on mechanical hyperalgesia after 0.5 h,"[1]; 3 mg/kg, i.p.",fully reversed the mechanical hyperalgesia
same,Time at which the effect waned to baseline,"[1]; 3 mg/kg, i.p.",3 h
same,Duration of full reversal of hyperalgesia,[4]; morphine,2 h
same,Time after which the effect was absent,[4]; morphine,2.5 h
"CGRP8-37-Chol: cholestanol conjugate of CGRP8-37 (VTHRLAGLLSRSGGVVKNNFVPTNVGSKAF; ends and bridges not checked; also: cholestanol conjugate; UniProt P06881 90-119, looked up, fragment)",Reversal of mechanical hyperalgesia,[7],~20%
"CGRP8-37: a membrane-impermeant CLR antagonist (VTHRLAGLLSRSGGVVKNNFVPTNVGSKAF; ends and bridges not checked; UniProt P06881 90-119, looked up, fragment)",Reversal of mechanical hyperalgesia,[7],not
